# Like-named read-outs stand apart in the source and are kept apart here.
# Assays:
# [1] = system: CD4+ T cell clone 2C5 spiked at 1% into DR1+ PBMCs; experiment: Multimer dilution assay; assay type: cell-based, human
# Description: Each multimer was serially diluted six times (1, 0.5, 0.25, 0.125, 0.0625, 0.0312, or 0.0156 μg with respect to the pMHC-II component) and used in a final volume of 20 μl to stain 1 × 10^6 DR1^+ PBMCs spiked at 1% with the CD4^+ T cell clone 2C5. After incubation for 20 min at 4°C, cells were washed twice in PBS, stained with Live/Dead fixable aqua (Invitrogen) for 10 min at room temperature and labeled with mouse anti-human CD3-FITC (Serotec), mouse anti-human CD4-allophycocyanin (BD Biosciences), mouse anti-human CD14–Pacific Blue (Invitrogen), and mouse anti-human CD19–Pacific Blue (Invitrogen) for 20 min at 4°C. After two further washes in PBS, samples were acquired directly on a FACSCanto II flow cytometer (BD Biosciences). Data were analyzed using FlowJo software version 10 (Tree Star).
# [2] = system: CD4+multimer+ T cells in PBMCs after influenza vaccination; assay type: cell-based, human
# [3] = system: Flu1 peptide-stimulated DR1+ PBMCs of donor 4 (CD4+ T cells); experiment: Dual multimer staining following PBMC culture; assay type: cell-based, human; conditions: dual stain 1 vs dual stain 2, donor 4
# Description: (§1) Flu1 peptide–stimulated, precultured PBMCs (5 × 10^5) were transferred to a 96-well plate and washed with PBS. Cell pellets were resuspended in 25 nM […] dasatinib (Axon Medchem, Reston, VA) and incubated for 30 min at 37°C. For each multimer, 0.5 μg was added directly to the cell pellet before incubating for 20 min on ice in the dark. Where dual staining with both PE- and allophycocyanin-conjugated multimers was used, 0.5 μg each was mixed per sample prior to addition to the cell pellets. Cells were then washed twice with cold PBS, followed by Live/Dead aqua (Life Technologies) staining to exclude dead cells. Surface staining was subsequently performed in PBS, 2.5% FCS, and 5 mM EDTA (FACS buffer), with the following cell surface markers: CD3-PerCP-Cy5.5 (BD Biosciences), CD4–Brilliant Violet 421 (BioLegend), CD14-FITC (BioLegend), and CD19-FITC (BioLegend). Cells were incubated for 20 min at 4°C in the dark before resuspending in FACS buffer for acquisition on a FACSCanto II (BD Biosciences). Data were analyzed using FlowJo version 10 (Tree Star).
# [4] = system: CD4+ T cell clone 2C5; experiment: pMHC-II multimer staining of CD4+ T cell clone 2C5; assay type: cell-based, human; conditions: DR1-Flu3 versus DR1-Flu1 multimer; 1 μg multimer, 1 × 10^5 cells, 20 min at 4°C
# Description: (§2) Clonal CD4^+ T cells (1 × 10^5) specific for HA306–318 were resuspended with 1 μg DR1-Flu1 or DR1-Flu3 multimer and incubated for 20 min at 4°C ([45]). Cells were then washed twice with PBS, stained with Live/Dead fixable violet (ViViD; Invitrogen) for 10 min at room temperature and labeled with mouse anti-human CD4-allophycocyanin (BD Biosciences) for 20 min at 4°C. After two further washes in PBS, samples were acquired directly on a FACSCanto II flow cytometer (BD Biosciences). Data were analyzed using FlowJo software version 10 (Tree Star). All incubations with fluorochrome-conjugated pMHC-II multimers were performed in the dark.
# [5] = system: HA1.7 TCR; experiment: Thermodynamic analysis (SPR, nonlinear van't Hoff) of HA1.7 TCR ligation; assay type: binding, human; conditions: HA1.7-DR1-Flu3, 298 K; Biacore T100; 10 serial dilutions of TCR at 5, 10, 15, 20, 25, 30°C; triplicate
# Description: Thermodynamic analysis of HA1.7 TCR ligation to DR1-Flu3 was performed using a Biacore T100 (GE Healthcare) equipped with a CM5 sensor chip. Activation and pMHC-II loading were assessed as previously described ([40]). A total of 500 response units of biotinylated pMHC-II were immobilized to streptavidin, which was chemically linked to the chip surface. Equilibrium binding analysis was performed with 10 serial dilutions of the TCR individually injected at temperatures of 5, 10, 15, 20, 25, and 30°C. Experiments were performed in triplicate using a blank flow cell, A2-[…] and DR1-CLIP as negative controls in separate experiments. The binding response was determined by subtraction of the response measured on a negative control flow cell from the response measured on flow cells containing DR1-Flu3. Results were analyzed using BIAevaluation 3.1, Microsoft Excel, and Origin 6.1. The KD values were calculated using a nonlinear curve fit [y = (P1x)/(P2 + x)].
# [6] = system: CD4+ T cells in DR1+ PBMCs ex vivo; assay type: cell-based, human
# [7] = system: Flu1 peptide-stimulated DR1+ PBMCs (CD4+ T cells); experiment: Multimer staining following PBMC culture; assay type: cell-based, human; conditions: four DR1+ donors, 12 d after HA306–318 stimulation
# Description: as §1
# [8] = system: CD4+ T cell clone DC-C10; experiment: Multimer staining of CD4+ T cell clone DC-C10; assay type: cell-based, human; conditions: histograms, Fig. 6B
# Description: as §2
# [9] = system: CD4+ T cell clone 2C5 spiked into PBMCs; experiment: Clone dilution assay; assay type: cell-based, human; conditions: 0.125 μg multimer/1 × 10^6 PBMCs
# Description: PBMCs (2 × 10^6) were spiked at 1, 0.5, 0.25, 0.125, 0.0625, or 0.0312% with the CD4^+ T cell clone 2C5. Cell mixtures were then stained with 0.125 μg multimer/1 × 10^6 PBMCs and labeled with Abs as described in the previous section. Samples were acquired directly on a FACSCanto II flow cytometer (BD Biosciences) and analyzed using FlowJo software version 10 (Tree Star).
# [10] = molecular target: 2C5 TCR; experiment: SPR equilibrium binding of 2C5 TCR to DR1-peptide; parameters: species or system human; conditions: 25°C; for Kd: SPR equilibrium binding, Biacore 3000, CM5 chip, biotinylated pMHC-II immobilized on streptavidin, 2C5 TCR injected in eight serial dilutions, 45 μl/min
# Description: Binding analysis was performed using a Biacore 3000 (GE Healthcare) equipped with a CM5 sensor chip, as reported previously ([43], [44]). Between 200 and 400 response units of biotinylated pMHC-II was immobilized on streptavidin, which was chemically linked to the chip surface. pMHC-II was injected at a slow-flow rate (10 μl/min) to ensure uniform distribution on the chip surface. The 2C5 TCR was purified and concentrated to ∼100 μM on the day of analysis to minimize TCR aggregation. For equilibrium analysis, eight serial dilutions were carefully prepared and injected over the relevant sensor chip at a flow rate of 45 μl/min at 25°C. Results were analyzed using BIAevaluation 3.1, Microsoft Excel, and Origin 6.1. The KD values were calculated using a nonlinear curve fit [y = P1x/(P2 + x)].
# [11] = system: CD4+ T cell clone DC-D8; experiment: Multimer staining of CD4+ T cell clone DC-D8; assay type: cell-based, human; conditions: histograms, Fig. 6C
# Description: as §2
# [12] = system: HA1.7, F11, and C6 TCRs; conditions: three TCRs HA1.7, F11, C6; presented by DR1; vs Flu1; cited from earlier work
# [13] = system: HA1.7 TCR; conditions: HA1.7-DR1-Flu1, 298 K, nonlinear regression of temperature vs free energy; previously published; cited from earlier work
# Source text: FIGURE 1. The biophysical impact of altered C-terminal PFRs on TCR binding. SPR was used to determine equilibrium binding of the 2C5 TCR to DR1 complexed with either (A) native Flu1 (HA306−318, […]) or (B) altered Flu3 ([…]). (C) Previously published thermodynamic analysis of the HA1.7-DR1-Flu1 interaction ([40]). (D) HA1.7-DR1-Flu3 thermodynamic properties showing enthalpy (ΔH^o) and entropy (TΔS^o) at 298 K calculated by nonlinear regression of temperature (K) plotted against free energy (ΔG^o). TEXT PRINTED IN THE PICTURE: (A) 2C5-DR1-Flu1: KD = 30 ± 2 μM | (B) 2C5-DR1-F ...
# [14] = system: T cells of three DR1+ donors; experiment: IFN-γ ELISPOT; assay type: cell-based, human; conditions: all three donors; data not shown
sequence,measurement,setting,value
"PKYVKQNTLKLAR [DR1-Flu3, HLA-DR1 heterodimer complexed with altered Flu3 ([…]); monomer in SPR, fluorochrome-tagged multimer in staining]",identification of CD4+multimer+ population at 1 μg/1 × 10^6 PBMCs,"[1]; PBMCs spiked at 1% with 2C5, 20 min at 4°C",enabled clear visualization and accurate enumeration
same,lowest multimer concentration with distinct staining,"[1]; PBMCs spiked at 1% with 2C5, 20 min at 4°C, distinct staining at concentrations down to this value",0.0312 μg/1 × 10^6 PBMCs
same,optimal quantity of multimer per stain,[1]; greatest shift in MFI while reducing potential nonspecific staining,0.125 μg/1 × 10^6 PBMCs
same,population of CD4+ T cells identified compared with DR1-Flu1 multimer,[2],identified a larger population of CD4^+ T cells
same,"detection of additional, presumably lower avidity, cells compared with DR1-Flu1",[3],"able to detect additional, presumably lower avidity, cells compared with DR1-Flu1"
same,mean fluorescence intensity (MFI) of staining of 2C5 clone,[4],A large increase in mean fluorescence intensity (MFI)
same,TΔS°,[5],20 kcal/mol
same,ΔH°,[5],16.4 kcal/mol
same,"MFI, fold higher than DR1-Flu1",[6],3 fold
same,proportion of CD4+ T cells stained compared with DR1-Flu1 multimer,[6],stained a higher proportion of CD4^+ T cells
same,CD4+multimer+ population size and MFI compared with DR1-Flu1 multimer,[7],"detected larger populations of CD4^+multimer^+ cells, with generally greater MFIs"
same,staining of clone DC-C10,[8],stained
same,ability to detect cognate CD4+ T cells across range of spiked frequencies,"[9]; 2C5 spiked at 1 to 0.0312%, compared with DR1-Flu1",far superior ability to detect cognate CD4^+ T cells across the entire range of spiked frequencies
same,Kd,[10],16 ± 2 µM
same,"affinity of 2C5 TCR, fold stronger compared with wild-type C-terminal PFR sequence","[10]; SPR, vs DR1-Flu1",~2 fold
same,staining of clone DC-D8,[11],stained
"PKYVKQNTLKLAR [Flu3, C-terminally modified variants of HA306−318 with Arg at P11 (Flu3, […])]",binding affinity increase,[12],~2 fold
"PKYVKQNTLKLAT [DR1-Flu1, HLA-DR1 heterodimer complexed with native Flu1 (HA306−318, …); monomer in SPR, fluorochrome-tagged multimer in staining]",identification of cognate CD4+ T cells at lower reagent concentrations,"[1]; below 1 μg/1 × 10^6 PBMCs, PBMCs spiked at 1% with 2C5",failed to identify cognate CD4^+ T cells
same,TΔS°,[13],23.8 kcal/mol
same,ΔH°,[13],18 kcal/mol
same,staining of clone DC-C10,[8],stained
same,spiked frequency at which precise quantification was almost impossible,[9]; poor separation,≤ 0.25%
same,Kd,[10],30 ± 2 µM
same,staining of clone DC-D8,[11],stained
"PKYVKQNTLKLAT [Flu1, influenza HA306–318 (Flu1), …]",T cell responses in IFN-γ ELISPOT assays,[14],robust T cell responses

# Source: PMC4671089, “Enhanced Detection of Antigen-Specific CD4^+ T Cells Using Altered Peptide Flanking Residue Peptide–MHC Class II Multimers” (The Journal of Immunology Author Choice, 2015)
